Test results taken from US12616759B2, “Uses of labeled HSP90 inhibitors” (Sloan-Kettering Institute for Cancer Research, priority 2011, dated 2026).

How the values were obtained:
[1] = test system: oncogenic HSP90; experiment: PU-H71-FITC2 binding to primary leukemia blasts relative to normal lymphocytes, flow cytometry; assay type: cell-based, human; conditions: blast crisis CML cells
Procedure: Cell viability was analyzed by flow cytometry (BD Biosciences). […] Cells were washed and then analyzed by flow cytometry. Normal mouse IgG2a-PE was used as isotype control.
Analysis is performed using FlowJo software.

[2] = test system: oncogenic HSP90; experiment: PU-FITC binding to EpCAM+ circulating tumor cells in PBMCs; assay type: cell-based, human; conditions: CTCs, patient with HER2+ metastatic breast cancer
Procedure: FIGS. 20A and 20B. PU-H71-FITC2 accumulation in EpCAM+ Circulating Tumor Cells: PBMC's isolated from whole blood were pre-treated with PU-FITC or controls (PU-FITC9, DMSO, 1 μM/2×10^6 cells/ml, 4 hrs). Cells were then stained with CD45, CD14 and EpCAM antibodies. FIG. 20A Cells are gated to exclude dead cells. Viable cells are then gated to determine EpCAM+vs CD45+ cells. Monocytes are excluded from the analysis by gating the CD45+ cells further as FSC vs. CD14. FIG. 20B Histogram plots showing the PU-FITC Median florescence intensity (MFI) of CD45+CD14− cells (blue) and EpCAM+ cells (Red). The drug accumulation in EpCAM+ cells is calculated as the ratio of MFI EpCAM+/MFI CD45+CD14− (circulating tumor cells/leukocytes) after subtracting the values of the DMSO and PU-FITC9 controls (used to control for non-specific and background binding).
Measure PU-FITC binding to EpCAM+ circulating tumor cells in PBMC's: All experimental blood sampling procedures were performed under the Institutional Review Board-approved protocols at Memorial Sloan Kettering Cancer Center. […] PBMC's are isolated on ficoll gradients, cells are counted and viability determined by trypan blue dye exclusion assay. PBMC's are spun down and re-suspended to 2×10^6 cells/ml. […] Values are calculated as a ratio of the MFI of Tumor (EpCAM+CD45−CD14−): MFI of EpCAM-CD45+CD14− cells. […]

[3] = test system: oncogenic HSP90; experiment: PU-H71-FITC2 binding to pancreatic and breast cancer cell lines relative to HL-60 versus viability
[4] = test system: MV4-11 and MOLM-13 cells; experiment: fluorescent PU-H71 derivatives in AML cell lines: flow cytometry, viability
[5] = test system: HSP70; experiment: HSP70 induction in hippocampus of 3×Tg AD mice; assay type: in vivo; conditions: i.p., 24 h
Procedure: FIGS. 43A, 43B, and 43C. 8-10 mo 3×Tg mice were administered 75 mg/kg (FIG. 43A) or the indicated dose of the HSP90 inhibitor PU-HZ151 (FIG. 43B) and the PD marker, HSP70, was measured in hippocampus, an afflicted brain region in this model of AD, at 24 h post-administration. HSP70 is induced when HSP90 is inhibited and its induction is an indicator that therapeutic levels of the HSP90 inhibitor were delivered to the brain region of interest. FIG. 43C: Levels of the HSP90 inhibitor in the indicated brain regions and plasma were determined by LC-MS/MS after the administration of 50 mg/kg PU-HZ151. Hsp90 inhibitor levels at different times after single ip injection are shown in micromolar units. Brain exposure was also measured as the area under the curve (AUC).
Pharmacodynamic analyses. For protein analysis, selected brain region (hippocampus) was homogenized in SDS lysis buffer (50 mM Tris pH 7.4, 2% SDS) and subjected to Western blot analysis. Levels of proteins were be analyzed by immunoblotting with anti-Hsp70 and Hsp90 antibodies.

[6] = in vivo; conditions: 3×Tg AD, mouse

SMILES: CC(C)N(CCCn1c(Sc2cc3c(cc2I)OCO3)nc2c(N)ncnc21)C(=S)Nc1ccc(-c2c3ccc(=O)cc-3oc3cc(O)ccc23)c(C(=O)O)c1 [PU-H71-FITC2]
- binding relative to normal lymphocytes [1]: over 4 fold
- fold more bound by tumor cells than leukocytes (CD45+CD14− cells) [2]: around 84 fold
- binding to HL-60 leukemia cells [3]: low to no binding
- permeation of live cells and target binding ([4]; 1 μM): permeate live cells and bind to the target
- effect on viability of leukemia cells ([4]; MOLM-13, 1 μM, 24 h): reduce the viability of leukemia cells

SMILES: CC(C)(C)CNCCn1c(Sc2cc3c(cc2I)OCO3)nc2c(N)ncnc21 [PU-HZ151]
- lowest administered dose with significant induction of HSP70 [5]: 10 mg/kg
- Kp [6]: 2.5
